ChEMBL document CHEMBL5236632, “Membrane-Active Nonivamide Derivatives as Effective Broad-Spectrum Antimicrobials: Rational Design, Synthesis, and Biological Evaluation” (J Med Chem, 2022)
Calls of active or inactive are those of the source. The rule behind the calls is not given here.

Key:
[1] = Selectivity ratio, HC50 for hemolytic activity in rabbit RBC to MIC for antibacterial activity against Staphylococcus aureus ATCC 29213; assay type: toxicity; conditions: rabbit red blood cells
[2] = Selectivity ratio, HC50 for hemolytic activity in rabbit RBC to MIC for antibacterial activity against methicillin-resistant Staphylococcus aureus N315; assay type: toxicity; conditions: rabbit red blood cells
[3] = Selectivity ratio, HC50 for hemolytic activity in rabbit RBC to MIC for antibacterial activity against Acinetobacter baumannii R2889; assay type: toxicity; conditions: rabbit red blood cells
Staphylococcus aureus [4] = assay: Antibacterial activity against Staphylococcus aureus ATCC 29213 assessed as inhibition of visible growth measured after 18 to 24 hrs in presence of 3220 ug/ml Na+ by broth dilution method; assay type: functional; conditions: time 18-24 hrs
Staphylococcus aureus [5] = assay: Antibacterial activity against Staphylococcus aureus ATCC 29213 assessed as inhibition of visible growth measured after 18 to 24 hrs in presence of 100 ug/ml Ca2+ by broth dilution method; assay type: functional; conditions: time 18-24 hrs
Staphylococcus aureus [6] = assay: Antibacterial activity against methicillin-resistant Staphylococcus aureus N315 assessed as inhibition of visible growth measured after 18 to 24 hrs in presence of 24.3 ug/ml Mg2+ by broth dilution method; assay type: functional; conditions: time 18-24 hrs
Staphylococcus aureus [7] = assay: Antibacterial activity against methicillin-resistant Staphylococcus aureus NCTC 10442 assessed as inhibition of visible growth measured after 18 to 24 hrs in presence of 3220 ug/ml Na+ by broth dilution method; assay type: functional; conditions: time 18-24 hrs
Staphylococcus aureus [8] = assay: Antibacterial activity against methicillin-resistant Staphylococcus aureus NCTC 10442 assessed as inhibition of visible growth measured after 18 to 24 hrs in presence of 175.5 ug/ml K+ by broth dilution method; assay type: functional; conditions: time 18-24 hrs
Escherichia coli [9] = assay: Antibacterial activity against Escherichia coli […] assessed as inhibition of visible growth measured after 18 to 24 hrs in presence of 3220 ug/ml Na+ by broth dilution method; assay type: functional; conditions: time 18-24 hrs
Escherichia coli [10] = assay: Antibacterial activity against Escherichia coli […] assessed as inhibition of visible growth measured after 18 to 24 hrs in presence of 100 ug/ml Ca2+ by broth dilution method; assay type: functional; conditions: time 18-24 hrs
Escherichia coli [11] = assay: Antibacterial activity against Escherichia coli […] assessed as inhibition of visible growth measured after 18 to 24 hrs in presence of 24.3 ug/ml Mg2+ by broth dilution method; assay type: functional; conditions: time 18-24 hrs
Klebsiella pneumoniae = assay: Antibacterial activity against Klebsiella pneumoniae ATCC 10031 assessed as inhibition of visible growth measured after 18 to 24 hrs in presence of 100 ug/ml Ca2+ by broth dilution method; assay type: functional; conditions: time 18-24 hrs
Staphylococcus aureus [12] = assay: Antibacterial activity against Staphylococcus aureus ATCC 29213 assessed as reduction in bacterial load at 8 time of MIC measured after 8 hrs by time kill assay; assay type: functional
Escherichia coli [13] = assay: Antibacterial activity against Escherichia coli ATCC 25922 assessed as bacterial regrowth at 8 time of MIC measured after 24 hrs by time kill assay; assay type: functional, organism-based
Cell membrane [14] = assay: Induction of membrane integrity disruption in Staphylococcus aureus ATCC 29213 assessed as increase fluoresence intensity at 4 to 8 times of MIC measured for 60 mins by SYTOX Green uptake assay; assay type: subcellular
Cell membrane [15] = assay: Induction of membrane integrity disruption in methicillin-resistant Staphylococcus aureus NCTC 10442 assessed as increase fluoresence intensity at 4 to 8 times of MIC measured for 60 mins by SYTOX Green uptake assay; assay type: subcellular
Cell membrane [16] = assay: Induction of outer membrane permeability in Escherichia coli ATCC 25922 assessed as increase fluoresence intensity at 4 to 8 times of MIC measured for 60 mins by NPN uptake assay; assay type: subcellular
Staphylococcus aureus [17] = assay: Displacement of BODIPY-TR-cadaverin from Staphylococcus aureus lipoteichoic acid at 8 times of MIC incubated for 30 mins by fluorescence based analysis
Staphylococcus aureus [18] = assay: Antibacterial activity against Staphylococcus aureus ATCC 29213 assessed as fold increase in MIC measured after 18 to 24 hrs in presence of 512 ug/ml LTA/LPS by broth dilution method; assay type: functional; conditions: time 18-24 hrs
Escherichia coli [19] = assay: Antibacterial activity against Escherichia coli ATCC 25922 assessed as fold increase in MIC measured after 18 to 24 hrs in presence of 512 ug/ml LTA/LPS by broth dilution method; assay type: functional; conditions: time 18-24 hrs
Staphylococcus aureus [20] = assay: Inhibition of biofilm formation Staphylococcus aureus ATCC 29213 assessed as decrease in biofilm formation at 0.20 ug/ml measured after 24 hrs by crystal violet staining assay; assay type: functional
Escherichia coli [21] = assay: Inhibition of biofilm formation Escherichia coli ATCC 25922 assessed as decrease in biofilm formation at 0.39 ug/ml measured after 24 hrs by crystal violet staining assay; assay type: functional
Escherichia coli [22] = assay: Inhibition of biofilm formation Escherichia coli ATCC 25922 assessed as decrease in biofilm formation at 0.78 ug/ml measured after 24 hrs by crystal violet staining assay; assay type: functional
Escherichia coli [23] = assay: Inhibition of biofilm formation Escherichia coli ATCC 25922 assessed as decrease in biofilm formation at 6.25 ug/ml measured after 24 hrs by crystal violet staining assay; assay type: functional
Staphylococcus aureus [24] = assay: Eradication of biofilm in Staphylococcus aureus ATCC 29213 assessed as biofilm viability at 0.20 ug/ml measured after 24 hrs by crystal violet staining assay; assay type: functional; conditions: dose 0.2 µg/ml
Staphylococcus aureus [25] = assay: Eradication of biofilm in Staphylococcus aureus ATCC 29213 assessed as biofilm viability at 0.39 ug/ml measured after 24 hrs by crystal violet staining assay; assay type: functional; conditions: dose 0.39 µg/ml
Staphylococcus aureus [26] = assay: Eradication of biofilm in Staphylococcus aureus ATCC 29213 assessed as biofilm viability at 0.78 ug/ml measured after 24 hrs by crystal violet staining assay; assay type: functional; conditions: dose 0.78 µg/ml
Staphylococcus aureus [27] = assay: Eradication of biofilm in Staphylococcus aureus ATCC 29213 assessed as biofilm viability at 3.13 ug/ml measured after 24 hrs by crystal violet staining assay; assay type: functional; conditions: dose 3.13 µg/ml
Staphylococcus aureus [28] = assay: Eradication of biofilm in Staphylococcus aureus ATCC 29213 assessed as biofilm viability at 6.25 ug/ml measured after 24 hrs by crystal violet staining assay; assay type: functional; conditions: dose 6.25 µg/ml
Escherichia coli [29] = assay: Eradication of biofilm in Escherichia coli ATCC 25922 assessed as biofilm viability at 0.78 ug/ml measured after 24 hrs by crystal violet staining assay; assay type: functional; conditions: dose 0.78 µg/ml
Escherichia coli [30] = assay: Eradication of biofilm in Escherichia coli ATCC 25922 assessed as biofilm viability at […] ug/ml measured after 24 hrs by crystal violet staining assay; assay type: functional; conditions: dose […] microg/ml, 1.56 ug/mL
Escherichia coli [31] = assay: Eradication of biofilm in Escherichia coli ATCC 25922 assessed as biofilm viability at 3.13 ug/ml measured after 24 hrs by crystal violet staining assay; assay type: functional; conditions: dose 3.13 µg/ml
Escherichia coli [32] = assay: Eradication of biofilm in Escherichia coli ATCC 25922 assessed as biofilm viability at 6.25 ug/ml measured after 24 hrs by crystal violet staining assay; assay type: functional; conditions: dose 6.25 µg/ml
Escherichia coli [33] = assay: Eradication of biofilm in Escherichia coli ATCC 25922 assessed as biofilm viability at 25 ug/ml measured after 24 hrs by crystal violet staining assay; assay type: functional; conditions: dose 25 µg/ml
Staphylococcus aureus [34] = assay: Drug resistance development in Staphylococcus aureus ATCC 29213 assessed as fold change in MIC measured after 20 passages; assay type: functional

## CCCCCCCCC(=O)NCc1ccc(OCCCCCCNC(=N)N)c(OCCCCCCNC(=N)N)c1
[1]
  selectivity ratio: 173
[2]
  selectivity ratio: 173
[3]
  selectivity ratio: 21.6
Staphylococcus aureus [4]
  MIC: 0.39 µg/mL
Staphylococcus aureus [5]
  MIC: 0.39 µg/mL
Staphylococcus aureus [6]
  MIC: 0.39 µg/mL
Staphylococcus aureus [7]
  MIC: 0.39 µg/mL
Staphylococcus aureus [8]
  MIC: 0.39 µg/mL
Escherichia coli [9]
  MIC: 1.56 µg/mL
Escherichia coli [10]
  MIC: 3.12 µg/mL
Escherichia coli [11]
  MIC: 1.56 µg/mL
Klebsiella pneumoniae
  MIC: 3.12 µg/mL
Staphylococcus aureus [12]
  Activity: 3.59 log10CFU/ml
Escherichia coli [13]
  Activity: Active
Cell membrane [14]
  Activity: Active
Cell membrane [15]
  Activity: Active
Cell membrane [16]
  Activity: Dose-Dependent Effect
Staphylococcus aureus [17]
  Activity: 38.4%
Staphylococcus aureus [18]
  fold change (FC): 8
Escherichia coli [19]
  fold change (FC): 16
Staphylococcus aureus [20]
  inhibition at 0.2 µg/mL: 62.3%
Escherichia coli [21]
  inhibition at 0.39 µg/mL: 85.1%
Escherichia coli [22]
  inhibition at 0.78 µg/mL: 88.9%
Escherichia coli [23]
  inhibition at 6.25 µg/mL: 109%
Staphylococcus aureus [24]
  Activity: 87.32%
Staphylococcus aureus [25]
  Activity: 73.22%
Staphylococcus aureus [26]
  Activity: 64.77%
Staphylococcus aureus [27]
  Activity: 14%
Staphylococcus aureus [28]
  Activity: 10.9%
Escherichia coli [29]
  Activity: 90.23%
Escherichia coli [30]
  Activity: 93.71%
Escherichia coli [31]
  Activity: 38.07%
Escherichia coli [32]
  Activity: 22.66%
Escherichia coli [33]
  Activity: 7.05%
Staphylococcus aureus [34]
  fold change (FC): <4
